Data taken from ChEMBL document CHEMBL1134247, “Glycosidase inhibition by cyclic sulfonium compounds” (Bioorg Med Chem Lett, 2001).
Each block holds one compound with its values, some of them ahead of it.

What was measured:
[1] = Inhibitory concentration of compound against Alpha-glucosidase in Bacillus stearothermophilus; parameters: species or system Geobacillus stearothermophilus
[2] = Inhibitory concentration of compound against Alpha-glucosidase in recombinant S. cerevisiae; not active; parameters: species or system Saccharomyces cerevisiae
Prunus dulcis = assay: (§1) Inhibitory concentration of compound against Alpha-mannosidase of Almond
[3] = Inhibitory concentration of compound against Alpha-glucosidase in rice
[4] = Inhibitory concentration of compound against Alpha-glucosidase in Baker's yeast; not active at less than 50% inhibition; parameters: species or system Saccharomyces cerevisiae
[5] = Inhibitory concentration of compound against Alpha-mannosidase of Almond; not active; parameters: species or system Prunus dulcis
[6] = Inhibitory concentration of compound against Alpha-glucosidase from Baker's yeast; not active at less than 50% inhibition; parameters: species or system Saccharomyces cerevisiae
[7] = tested on: beta-glucosidase (Prunus dulcis); assay: Inhibitory concentration of compound against Beta-glucosidase from Almond;not active
[8] = Inhibitory concentration of compound against Alpha-glucosidase from rice; not active at less than 50% inhibition
[9] = Inhibitory concentration of compound (4:6 ratio of 10a/10b) against Alpha-glucosidase from rice
[10] = tested on: beta-glucosidase (Prunus dulcis); assay: Inhibitory concentration of compound (4:6 ratio of 10a/10b) against Beta-Glucosidase from Almond; not active
[11] = Inhibitory concentration of compound (4:6 ratio of 10a/10b) against Alpha-glucosidase from Bacillus stearothermophilus; parameters: species or system Geobacillus stearothermophilus
[12] = Inhibitory concentration of compound (10:1 ratio of 10a/10b) against Alpha-glucosidase from Baker's yeast; parameters: species or system Saccharomyces cerevisiae
[13] = Inhibitory concentration of compound (4:6 ratio of 10a/10b) against Alpha-glucosidase from Baker's yeast; parameters: species or system Saccharomyces cerevisiae
[14] = Inhibitory concentration of compound (4:6 ratio of 10a/10b) against Alpha-mannosidase of Almond; parameters: species or system Prunus dulcis
[15] = Inhibitory concentration of compound (10:1 ratio of 10a/10b) against Alpha-mannosidase of Almond; parameters: species or system Prunus dulcis
[16] = tested on: beta-glucosidase (Prunus dulcis); assay: Inhibitory concentration of compound (10:1 ratio of 10a/10b) against Beta-glucosidase from Almond; not active
[17] = Inhibitory concentration of compound (4:6 ratio of 10a/10b) against Alpha-glucosidase from recombinant Saccharomyces cerevisiae
[18] = Inhibitory concentration of compound (10:1 ratio of 10a/10b) against Alpha-glucosidase from rice
[19] = Inhibitory concentration of compound (10:1 ratio of 10a/10b) against Alpha-glucosidase from recombinant Saccharomyces cerevisiae
[20] = Inhibitory concentration of compound (10:1 ratio of 10a/10b) against Alpha-glucosidase from Bacillus stearothermophilus; parameters: species or system Geobacillus stearothermophilus
Beta-galactosidase = Beta-galactosidase (Escherichia coli, UniProt Q8VNN2); assay: Inhibitory effect towards Beta-galactosidase at a concentration of 2 mM from E. coli; no inhibitory effect
[21] = as §1; parameters: species or system Prunus dulcis
[22] = Inhibitory concentration of compound against Alpha-glucosidase from recombinant S. cerevisiae; not active at less than 50% inhibition; parameters: species or system Saccharomyces cerevisiae
[23] = Inhibitory concentration of compound against Alpha-glucosidase from B. stearothermophilus; not active at less than 50% inhibition; parameters: species or system Geobacillus stearothermophilus
[24] = Inhibitory concentration of compound against Alpha-glucosidase from rice
[25] = tested on: alpha-galactosidase (Coffea arabica); assay: Inhibitory effect towards Alpha-galactosidase at a concentration of 2 mM from coffee beans; no inhibitory effect

Beta-galactosidase, sequence (Q8VNN2 whole entry): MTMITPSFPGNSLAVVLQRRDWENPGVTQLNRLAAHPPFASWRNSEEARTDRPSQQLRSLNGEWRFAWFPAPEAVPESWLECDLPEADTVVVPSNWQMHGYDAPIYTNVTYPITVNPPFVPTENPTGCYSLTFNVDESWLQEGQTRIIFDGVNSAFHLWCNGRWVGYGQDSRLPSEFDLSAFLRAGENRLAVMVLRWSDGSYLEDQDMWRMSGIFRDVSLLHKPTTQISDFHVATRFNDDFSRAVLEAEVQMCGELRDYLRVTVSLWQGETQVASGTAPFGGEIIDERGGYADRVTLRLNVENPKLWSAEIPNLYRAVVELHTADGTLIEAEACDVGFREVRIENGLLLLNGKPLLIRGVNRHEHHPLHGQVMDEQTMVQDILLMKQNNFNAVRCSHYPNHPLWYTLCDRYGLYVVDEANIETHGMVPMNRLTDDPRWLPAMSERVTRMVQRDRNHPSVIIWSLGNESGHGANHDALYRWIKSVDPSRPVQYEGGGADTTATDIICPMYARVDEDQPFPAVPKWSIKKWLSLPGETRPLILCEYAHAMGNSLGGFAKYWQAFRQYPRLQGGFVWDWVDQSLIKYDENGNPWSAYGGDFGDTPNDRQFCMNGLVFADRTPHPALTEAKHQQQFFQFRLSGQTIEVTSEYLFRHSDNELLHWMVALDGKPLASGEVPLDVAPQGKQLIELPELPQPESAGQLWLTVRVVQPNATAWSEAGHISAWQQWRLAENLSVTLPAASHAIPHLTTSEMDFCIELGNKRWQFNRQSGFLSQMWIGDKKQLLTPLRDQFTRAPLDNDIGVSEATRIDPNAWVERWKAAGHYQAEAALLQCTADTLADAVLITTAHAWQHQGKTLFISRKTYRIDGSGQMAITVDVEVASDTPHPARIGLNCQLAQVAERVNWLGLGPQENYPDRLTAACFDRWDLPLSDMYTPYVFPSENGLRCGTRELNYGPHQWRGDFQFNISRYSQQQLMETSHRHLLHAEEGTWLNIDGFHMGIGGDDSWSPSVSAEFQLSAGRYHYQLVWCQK

IC50 [5]: Not Active | IC50 [6]: Not Active | IC50 [7]: Not Active | IC50 [8]: Not Active
SMILES: O=S(=O)([O-])O[C@@H](CO)[C@H](O)C[S+]1CCCC1

IC50 (Beta-galactosidase): No effect | IC50 [6]: Not Active | IC50 [24]: 1000 µM | IC50 [25]: No effect
SMILES: O=S(=O)([O-])O[C@H](CO)[C@@H](O)C[S+]1CCCC1

Further lines, the compound ahead of its results:

SMILES: O=S(=O)([O-])O[C@@H](CO)[C@H](O)C[S@+]1C[C@@H](O)[C@H](O)[C@@H]1CO
IC50 [1]: 2500 µM | IC50 [2]: Not Active | IC40 (Prunus dulcis): 2100 µM | IC50 [3]: 110 µM | IC50 [4]: Not Active

SMILES: C[S+]1C[C@@H](O)[C@H](O)[C@H]1CO.[I-] (stereo partly specified)
IC50 [9]: 2000 µM | IC50 [10]: Not Active | IC50 [11]: 1400 µM | IC50 [12]: 360 µM | IC50 [13]: 2200 µM | IC50 [14]: 1200 µM | IC50 [15]: 2100 µM | IC50 [16]: Not Active | IC50 [17]: 2100 µM | IC50 [18]: 410 µM | IC50 [19]: 490 µM | IC50 [20]: 250 µM

SMILES: O=S(=O)([O-])O[C@H](CO)[C@@H](O)C[S@+]1C[C@@H](O)[C@H](O)[C@@H]1CO
IC50 (Beta-galactosidase): No effect | IC50 [21]: 3600 µM | IC50 [22]: Not Active | IC50 [23]: Not Active | IC50 [6]: Not Active | IC50 [24]: 380 µM
